# Key:
# [1] = tested on: “m.1555A>G mutant” cells; assay: Cytotoxicity level (extracellular LDH activity) of BSO-treated cells; assay type: cell-based, human; settings: BSO 100 μM, 48 hours
# Experimental: (§1) In the following Examples 2, 3, and 5, “m.1555A>G mutant” cells were obtained by skin reproductive to a patient having “m.1555A>G mutation” to obtain dermal fibroblasts, then 10% Primary culture was carried out in DMEM (low glucose) culture solution (manufactured by Nacalai Tesque, Inc) containing FBS (Fetal bovine serum) under the condition of 5% CO2/20% O2, at 37° C. and isolated. In the following Examples 4 and 5, the inner ear culture was carried out in DMEM (high glucose) culture medium containing 10% FBS (Fetal bovine serum) under the condition of 5% CO2/20% O2, at 37° C.
# (§2) [1] 2000 cells of “m.1555A>G mutant” cells were plated per well in a 96-well cell culture plate and cultured for 24 hours.
# [2] Glutathione synthesis inhibitor BSO (L-Buthionine sulphoximine) (manufactured by Sigma-Aldrich) was mixed in the culture solution to be 100 μM and cultured for 24 hours (BSO-treated group). As a control, “m.1555A>G mutant” cells were cultured for 24 hours in the absence of BSO (control treatment group). For the BSO-treated group, the compound #5 synthesized in Example 1 was mixed into the culture solution so as to be at various concentrations (0.3, 1, 3, 10, and 30 μM) and cultured for 48 hours (N=4). As a control, the cells were cultured in the absence of compound #5 (DMSO was added so as to be 0.01%.). Cell survival level was measured by MTT assay using Cell Counting Kit-8 (manufactured by Dojindo Laboratories). That is, 100 μL of Cell Count Reagent SF was added to each well, incubated for 2 hours, and after 3 seconds of stirring with a microplate reader, the absorbance was measured at 450 nm (reference 750 nm). In addition, the level of cytotoxicity was detected by measuring lactate dehydrogenase (LDH) activity released extracellularly using Cytotoxicity LDH Assay Kit-WST (manufactured by Dojindo Laboratories). That is, 100 μL each of Working Solution prepared in each well was added, incubated for 30 minutes, Stop Solution was added in 50 μL each, and after stirring for 3 seconds with a microplate reader, the absorbance was measured at 490 nm (reference 750 nm).
# [2] = tested on: “m.1555A>G mutant” cells; assay: Cell survival level (MTT assay) of cisplatin- or gentamicin-treated cells; assay type: cell-based, human; settings: 24 hours; for reduction of the cell survival level by gentamicin: gentamicin 2000 μM
# Experimental: as §1, §2
# [2] Cisplatin (manufactured by Yakult Corporation) or gentamicin (manufactured by Nacalai Tesque, Inc.) was mixed into the culture solution to be 100 μM and 2000 μM, respectively, and the compound #5 synthesized in Example 1 was mixed with various concentrations (1 and 10 μM), and cultured for 24 hours (cisplatin-treated group and gentamicin-treated group). As a control, “m.1555A>G mutant” cells were cultured in the absence of cisplatin (control group) or cisplatin-treated group in the absence of compound #5 (DMSO was added to 0.01%) for 24 hours. Cell survival level was measured by MTT assay using Cell Counting Kit-8 (manufactured by Dojindo laboratories). Specifically, 100 μL of Cell Count Reagent SF was added to each well, followed by incubation for 2 hours, and then stirred with a microplate reader for 3 seconds. Then the absorbance with 450 nm (reference 750 nm) was measured.
# [3] = tested on: “m.1555A>G mutant” cells; assay: Amount of ATP production in cells derived from hearing loss patients; assay type: cell-based, human; settings: compound 10 μM, 12 hours
# Experimental: as §1
# [1] Three thousand “m.1555A>G mutant” cells were seeded per well in a 96-well cell culture plate and cultured for 24 hours.
# [2] Compound #5 synthesized in Example 1 was mixed into the culture solution to be 10 μM and cultured for 12 hours (compound-treated group). As a control, “m.1555A>G mutant” cells were cultured in a culture medium in the absence of compound #5 (control group) or in a culture medium containing 0.01% DMSO (DMSO-treated group) for 12 hours. The concentration of ATP in the culture solution was measured with “cellular” ATP assay reagent (manufactured by Toyo Binet).
# [4] = tested on: inner ear cells; assay: Amount of ATP production in cultured inner ear; assay type: cell-based, mouse; settings: compound 10 μM; 3 hour results
# Experimental: as §1
# [1] The inner ear of P3 mice was isolated and cultured in culture solution for 24 hours.
# [2] The compound #5 synthesized in Example 1 was mixed in the culture solution to be 10 μM and cultured for various times (3 hours, 6 hours, and 12 hours). […] [3] The concentration of ATP in the culture solution was measured with “cellular” ATP assay reagent (manufactured by Toyo Binet).
smiles,measurement,setting,value
"O=C(CC(C(=O)O)c1c[nH]c2ccccc12)c1ccc(F)cc1F (centres unmarked) [compound #5, 4-(2,4-Difluorophenyl)-2-(1H-indol-3-yl)-4-oxo-butanoic Acid]",increase in the level of cytotoxicity,"[1]; compound 3 μM, vs BSO-treated DMSO",a significant difference was observed
same,increase in the level of cytotoxicity,[1]; compound at least 0.3 μM,suppressed
same,increase in the level of cytotoxicity,[1]; compound at least 1 μM,reduced to a level almost unchanged from that of the control group
same,decrease in cell survival level due to cisplatin treatment,"[2]; cisplatin 100 μM, compound 1 to 10 μM",significantly suppressed
same,reduction of the cell survival level by gentamicin,[2]; compound 10 μM,significantly suppressed
same,reduction of the cell survival level by gentamicin,[2]; compound at least 1 μM,suppressed
same,amount of ATP production,[3],increases
same,amount of ATP production,[4],increases
